The term IC50 denotes the concentration that inhibits the measured activity by half. A higher IC50 goes with a need for much substance.

Among the data in patent US20170157135A1 (Novogen Limited, priority 2013, published 2017) are IC50 values, retold here.

Format in all cases: cell-based
The subject of test [1] is CaCo2 colorectal cancer cells. Nature of the test: Anti-proliferative assay (cell-titre luminescent), CaCo2. The following applies: Homo sapiens, Caco-2; CaCo2, 72 hours, luminescence. The protocol:
(§1) The ability of compounds 2002, 2009 and 2013-2064 to inhibit the proliferation of cancer cells representative of neuroblastoma, melanoma, prostate cancer, colorectal cancer, non-small cell lung carcinoma, and triple negative breast cancer was assessed. These studies were conducted by contract research (GVK-BIO). Briefly, a pre-determined number of cells as calculated from cell growth assays for each of the cell lines employed were seeded into their respective culture medium (using ATCC culture parameters—http://www.atcc.org) and cultured for 24 h at 37° C. and 5% CO2 in 96-well culture plates. Once attached, each cell line was then exposed to various concentrations of each respective analogue (30, 10, 3, 1, 0.3 and 0.1 μM), cultured for a further 72 hours and exposed to cell-titre luminescent reagent (100 μL/well) for a further 30 minutes). Luminescence was captured using an EnVision multilabel reader and the data for each analogue concentration compared against no treatment control. Cell viability was normalized to control (vehicle alone) and dose-response curves, and half maximal effective concentration (EC50) values were determined using Graph Pad Prism 6 (nonlinear regression sigmoidal dose-response variable slope).

Test [2] has as its system PC3 prostate cancer cells. Nature of the test: Anti-proliferative assay (cell-titre luminescent), PC3. The following applies: PC3, 72 hours, luminescence. The protocol: as §1
Another test concerns SK-Mel-28 melanoma cells. Nature of the test: Anti-proliferative assay (cell-titre luminescent), SK-Mel-28. The note with it: Homo sapiens; SK-Mel-28, 72 hours, luminescence. The protocol: as §1
Test [3] deals with MDA-MB-231 breast cancer cells. Nature of the test: Anti-proliferative assay (cell-titre luminescent), MDA-MB-231. The following applies: Homo sapiens; MDA-MB-231, 72 hours, luminescence. As to the method: as §1
The next test relates to A549 lung (NSLC) cells. Nature of the test: Anti-proliferative assay (cell-titre luminescent), A549. The following applies: Homo sapiens; A549, 72 hours, luminescence. The protocol: as §1
The test system of test [4] is SK-N-SH neuroblastoma cells. Nature of the test: Anti-proliferative assay (cell-titre luminescent), SK-N-SH. The following applies: Homo sapiens, 72 hours, luminescence. As to the method: as §1
Test [5] concerns DU145 prostate cancer cells. Description: Anti-proliferative assay (cell-titre luminescent), DU145. The following applies: Homo sapiens, DU-145; DU145, 72 hours, luminescence. As to the method:
as §1

Some results are limits rather than exact numbers.

Regarding `COc1ccc(CCN2CCN(C(=O)c3c(C)n(CCCN(C)C)c4ccc(OC)cc34)CC2)cc1` [Compound 2045, (1-(3-(dimethylamino)propyl)-5-methoxy-2-methyl-1H-indol-3-yl)(4-(4-methoxyphenethyl)piperazin-1-yl)methanone], the IC50 (in test [1]; in test [2]; in the test with SK-Mel-28 melanoma cells; in test [3]; with A549 lung (NSLC) cells; in test [4]) was > 30 µM in each case. For the same compound, the IC50 in test [5] is > 30 µM.
For `COc1ccc2c(c1)c(C(=O)N1CCN(CCc3ccc4c(c3)OCO4)CC1)c(C)n2CCCN(C)C` [Compound 2046, (4-(2-(benzo[d][1,3]dioxol-5-yl)ethyl)piperazin-1-yl)(1-(3-(dimethylamino)propyl)-5-methoxy-2-methyl-1H-indol-3-yl)methanone], the IC50 in test [1] came to 8 µM; in test [2], 20.3 µM; in the test on SK-Mel-28 melanoma cells, 4.4 µM; in test [3], 11.3 µM; in the test on A549 lung (NSLC) cells it was 14.4 µM; in test [4], 7.9 µM. For the same compound, the midpoint of inhibition in test [5], the IC50, lay at 13.3 µM.
`COc1ccc2c(c1)c(C(=O)N1CCN(CCc3cccc(F)c3)CC1)c(C)n2CCCN(C)C` [Compound 2047, (1-(3-(dimethylamino)propyl)-5-methoxy-2-methyl-1H-indol-3-yl)(4-(3-fluorophenethyl)piperazin-1-yl)methanone]: the IC50 came out at 8.8 µM in test [1]; 14.9 µM in test [2]; 13.5 µM with SK-Mel-28 melanoma cells; 12 µM in test [3]; 14.3 µM in the test on A549 lung (NSLC) cells; 10.9 µM in test [4]. In test [5], this compound displayed an IC50 of 13.6 µM.
For `COc1cccc(CCN2CCN(C(=O)c3c(C)n(CCCN(C)C)c4ccc(OC)cc34)CC2)c1` [Compound 2048, (1-(3-(dimethylamino)propyl)-5-methoxy-2-methyl-1H-indol-3-yl)(4-(3-methoxyphenethyl)piperazin-1-yl)methanone], the IC50 (in test [1]; in test [2]; in the test on SK-Mel-28 melanoma cells; in test [3]; in the test on A549 lung (NSLC) cells; in test [4]) was > 30 µM throughout. Also, the half-maximal inhibitory concentration (IC50) in test [5] was > 30 µM.
As for `COc1ccc2c(c1)c(C(=O)N1CCN(CCc3ccccc3)CC1)c(C)n2CCCN(C)C` [Compound 2049, (1-(3-(dimethylamino)propyl)-5-methoxy-2-methyl-1H-indol-3-yl)(4-phenethylpiperazin-1-yl)methanone], the IC50 in test [1] is > 30 µM; in test [2], 8.6 µM; in the test on SK-Mel-28 melanoma cells, 8.7 µM; in test [3], 7.5 µM; in the test with A549 lung (NSLC) cells it was > 30 µM; in test [4] it was 8.9 µM. The IC50 in test [5] was > 30 µM.
As for `CCN(CC)CCCn1c(C)c(C(=O)N2CCN(CCc3ccc(F)cc3)CC2)c2cc(OC)ccc21` [Compound 2050, (1-(3-(diethylamino)propyl)-5-methoxy-2-methyl-1H-indol-3-yl)(4-(4-fluorophenethyl)piperazin-1-yl)methanone], the IC50 in test [1] was found to be 10.4 µM; in test [2], 26.4 µM; in the test on SK-Mel-28 melanoma cells, 5.3 µM; in test [3], 14 µM; in the test with A549 lung (NSLC) cells, 19.8 µM; in test [4], 21.4 µM. In test [5], this compound showed an IC50 of 15.9 µM.
For `CCN(CC)CCCn1c(C)c(C(=O)N2CCN(CCc3ccc(OC)cc3)CC2)c2cc(OC)ccc21` [Compound 2051, (1-(3-(diethylamino)propyl)-5-methoxy-2-methyl-1H-indol-3-yl)(4-(4-methoxyphenethyl)piperazin-1-yl)methanone], the IC50 is > 30 µM in test [1]; > 30 µM in test [2]; 6 µM with SK-Mel-28 melanoma cells; 10.3 µM in test [3]; > 30 µM with A549 lung (NSLC) cells; 10.9 µM in test [4]. The IC50 in test [5] is > 30 µM.
On to `CCN(CC)CCCn1c(C)c(C(=O)N2CCN(CCc3ccc4c(c3)OCO4)CC2)c2cc(OC)ccc21` [Compound 2052, (4-(2-(benzo[d][1,3]dioxol-5-yl)ethyl)piperazin-1-yl)(1-(3-(diethylamino)propyl)-5-methoxy-2-methyl-1H-indol-3-yl)methanone], for which the IC50 in test [1] came to 16 µM; in test [2], 10.9 µM; in the test on SK-Mel-28 melanoma cells, 5.7 µM; in test [3], 12.7 µM; in the test with A549 lung (NSLC) cells, 11.8 µM; in test [4], 10.9 µM. This compound displayed an IC50 in test [5] of 9.2 µM.
Take `CCN(CC)CCCn1c(C)c(C(=O)N2CCN(CCc3cccc(F)c3)CC2)c2cc(OC)ccc21` [Compound 2053, (1-(3-(diethylamino)propyl)-5-methoxy-2-methyl-1H-indol-3-yl)(4-(3-fluorophenethyl)piperazin-1-yl)methanone]: the IC50 came to 12.2 µM in test [1]; 11 µM in test [2]; 4.7 µM in the test on SK-Mel-28 melanoma cells; 12.6 µM in test [3]; 13.5 µM with A549 lung (NSLC) cells; 4.8 µM in test [4]. This compound also gave an IC50 in test [5] of 13.6 µM.
Regarding `CCN(CC)CCCn1c(C)c(C(=O)N2CCN(CCc3cccc(OC)c3)CC2)c2cc(OC)ccc21` [Compound 2054, (1-(3-(diethylamino)propyl)-5-methoxy-2-methyl-1H-indol-3-yl)(4-(3-methoxyphenethyl)piperazin-1-yl)methanone], the IC50 was > 30 µM in test [1]; 6.9 µM in test [2]; 5.4 µM in the test on SK-Mel-28 melanoma cells; 11.8 µM in test [3]; 17.8 µM in the test with A549 lung (NSLC) cells; 10.4 µM in test [4]. In addition, the IC50 in test [5] was > 30 µM.
Regarding `CCN(CC)CCCn1c(C)c(C(=O)N2CCN(CCc3ccccc3)CC2)c2cc(OC)ccc21` [Compound 2055, (1-(3-(diethylamino)propyl)-5-methoxy-2-methyl-1H-indol-3-yl)(4-phenethylpiperazin-1-yl)methanone], the IC50 was > 30 µM in test [1]; > 30 µM in test [2]; 1.1 µM with SK-Mel-28 melanoma cells; > 30 µM in test [3]; > 30 µM in the test on A549 lung (NSLC) cells; > 30 µM in test [4]. Moreover, the half-maximal inhibitory concentration (IC50) in test [5] is > 30 µM.
As to `COc1ccc2c(c1)c(C(=O)N1CCN(CCc3ccc(F)cc3)CC1)c(C)n2CCCN1CCN(C)CC1` [Compound 2056, (4-(4-fluorophenethyl)piperazin-1-yl)(5-methoxy-2-methyl-1-(3-(4-methylpiperazin-1-yl)propyl)-1H-indol-3-yl)methanone], the concentration for half-maximal inhibition (IC50) in test [1] worked out at 10.1 µM; in test [2] it was 10.8 µM; with SK-Mel-28 melanoma cells it was 4.8 µM; in test [3], 13.9 µM; with A549 lung (NSLC) cells, 14.7 µM; in test [4], 11.2 µM. In addition, the IC50 in test [5] turned out to be 18.9 µM.
On to `COc1ccc(CCN2CCN(C(=O)c3c(C)n(CCCN4CCN(C)CC4)c4ccc(OC)cc34)CC2)cc1` [Compound 2057, (5-methoxy-2-methyl-1-(3-(4-methylpiperazin-1-yl)propyl)-1H-indol-3-yl)(4-(4-methoxyphenethyl)piperazin-1-yl)methanone], for which the IC50 in test [1] is 13.3 µM; in test [2] it was 9 µM; in the test on SK-Mel-28 melanoma cells it was 4.4 µM; in test [3], 7.5 µM; with A549 lung (NSLC) cells, 21.1 µM; in test [4] it was 7.2 µM. Besides, the midpoint of inhibition in test [5], the IC50, lay at 30 µM.
As to `COc1ccc2c(c1)c(C(=O)N1CCN(CCc3ccc4c(c3)OCO4)CC1)c(C)n2CCCN1CCN(C)CC1` [Compound 2058, (4-(2-(benzo[d][1,3]dioxol-5-yl)ethyl)piperazin-1-yl)(5-methoxy-2-methyl-1-(3-(4-methylpiperazin-1-yl)propyl)-1H-indol-3-yl)methanone], the IC50 in test [1] was found to be 10.8 µM; in test [2], 12 µM; with SK-Mel-28 melanoma cells it was 4.8 µM; in test [3], 29.8 µM; in the test with A549 lung (NSLC) cells, 13.9 µM; in test [4], 8 µM. Besides, the half-inhibitory concentration (IC50) in test [5] came out at 21.1 µM.
Consider `COc1ccc2c(c1)c(C(=O)N1CCN(CCc3cccc(F)c3)CC1)c(C)n2CCCN1CCN(C)CC1` [Compound 2059, (4-(3-fluorophenethyl)piperazin-1-yl)(5-methoxy-2-methyl-1-(3-(4-methylpiperazin-1-yl)propyl)-1H-indol-3-yl)methanone], for which the IC50 in test [1] came to 19.6 µM; in test [2] it was 9.2 µM; in the test with SK-Mel-28 melanoma cells it was 3.8 µM; in test [3] it was 7 µM; in the test on A549 lung (NSLC) cells it was 10.2 µM; in test [4] it was 4.2 µM. In addition, half-maximal inhibition in test [5] (IC50) required 10.1 µM.
Turning to `COc1cccc(CCN2CCN(C(=O)c3c(C)n(CCCN4CCN(C)CC4)c4ccc(OC)cc34)CC2)c1` [Compound 2060, (5-methoxy-2-methyl-1-(3-(4-methylpiperazin-1-yl)propyl)-1H-indol-3-yl)(4-(3-methoxyphenethyl)piperazin-1-yl)methanone], the IC50 in test [1] was > 30 µM; in test [2] it was > 30 µM; in the test with SK-Mel-28 melanoma cells, 7.5 µM; in test [3] it was 6.1 µM; with A549 lung (NSLC) cells, > 30 µM; in test [4], 10.8 µM. Also, in test [5], the IC50 was > 30 µM.
